Experimental findings from PubChem BioAssay (NCI) are described below.

Each structure is given as a SMILES string.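 In this assay, cells in 96-well plates receive the compound at five concentrations for 48 hours. Endpoints are linearly interpolated between the surrounding concentrations. Definition used: TGI = concentration required for complete inhibition of growth.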

Some test systems named below: MDA-MB-435; HS 578T breast; HCT-116 colon; HCT-15 colon; MALME-3M melanoma; PC-3 prostate; SK-MEL-28 melanoma; NCI-H226 lung; U251 CNS; SF-539 CNS; SN12C renal; KM12 colon; HCC-2998 colon.
What all share (test): NCI tumour cell line growth inhibition, 48 h

As to `CCOC(=O)C(C)c1nc2cc(C(F)(F)F)ccc2[nH]c1=O` (stereo not drawn), the TGI in the experiment with MDA-MB-435, in the experiment on HS 578T breast, with HCT-116 colon, with HCT-15 colon, with MALME-3M melanoma and in the experiment with PC-3 prostate was more than 100 µM throughout. Also, the TGI in the experiment on SK-MEL-28 melanoma, in the experiment on NCI-H226 lung, with U251 CNS, in the experiment with SF-539 CNS, in the experiment on SN12C renal and in the experiment on KM12 colon was more than 100 µM each time. The same molecule yielded a TGI in the experiment on HCC-2998 colon of more than 100 µM.
For `CC1=NN(C(=O)CC(=O)Nc2ccc(Cl)cc2)C(=O)C1N=Nc1ccc(S(=O)(=O)c2ccc(N=NC3C(=O)N(C(=O)CC(=O)Nc4ccc(Cl)cc4)N=C3C)cc2)cc1` (stereo not drawn), the TGI in the experiment on MDA-MB-435, in the experiment on HS 578T breast, with HCT-116 colon, in the experiment on HCT-15 colon, with MALME-3M melanoma and in the experiment with PC-3 prostate was more than 100 µM in each case. Besides, the TGI in the experiment on SK-MEL-28 melanoma was more than 100 µM; with NCI-H226 lung, more than 100 µM; with U251 CNS, 59.6 µM; in the experiment on SF-539 CNS it was more than 100 µM; in the experiment on SN12C renal, more than 100 µM; with KM12 colon it was more than 100 µM. In addition, the TGI in the experiment with HCC-2998 colon was more than 100 µM.
In the case of `CC(C)(C)OC(=O)NC(Cc1ccc(OCc2ccccc2)cn1)C(N)=O` (stereo not drawn), the TGI in the experiment on MDA-MB-435, in the experiment with HS 578T breast, with HCT-116 colon, in the experiment on HCT-15 colon, in the experiment with MALME-3M melanoma and in the experiment on PC-3 prostate was more than 100 µM each time. Moreover, the TGI in the experiment on SK-MEL-28 melanoma, with NCI-H226 lung, with U251 CNS, with SF-539 CNS, in the experiment with SN12C renal and in the experiment with KM12 colon was more than 100 µM each time. In addition, the TGI with HCC-2998 colon was more than 100 µM.
For `COc1cc(/C=C2\CC(C)C/C(=C\c3ccc(O)c(OC)c3)C2=O)ccc1O` (stereo not drawn), the TGI in the experiment with MDA-MB-435 amounted to 6.21 µM; with HS 578T breast, 10.4 µM; in the experiment on HCT-116 colon it was 3.4 µM; with HCT-15 colon, 4.93 µM; in the experiment with MALME-3M melanoma, 8.75 µM; in the experiment on PC-3 prostate it was 20.5 µM. In addition, the TGI in the experiment with SK-MEL-28 melanoma was 8.95 µM; in the experiment with NCI-H226 lung it was 17.6 µM; in the experiment with U251 CNS it was 5.59 µM; in the experiment with SF-539 CNS, more than 23.7 µM; in the experiment on SN12C renal, 8.35 µM; in the experiment on KM12 colon, 3.86 µM. In the experiment with HCC-2998 colon, this molecule displayed a TGI of 12.5 µM.
With `CC1(C)N([O-])[N+](=O)C1(Br)c1ccccc1` (stereo not drawn), the TGI in the experiment on MDA-MB-435, with HS 578T breast, with HCT-116 colon, with HCT-15 colon, in the experiment on MALME-3M melanoma and in the experiment on PC-3 prostate was more than 100 µM each time. Moreover, the TGI with SK-MEL-28 melanoma, with NCI-H226 lung, in the experiment with U251 CNS, with SF-539 CNS, in the experiment with SN12C renal and with KM12 colon was more than 100 µM in each case. Moreover, the TGI in the experiment with HCC-2998 colon was more than 100 µM.
With `CCNC1=C(NC(=O)c2ccc(OC)cc2)C(=O)c2ccccc2C1=O`, the TGI was 31.1 µM with MDA-MB-435; more than 100 µM with HS 578T breast; more than 100 µM with HCT-116 colon; more than 100 µM with HCT-15 colon; 50.9 µM in the experiment with MALME-3M melanoma; more than 100 µM in the experiment with PC-3 prostate. Also, the TGI in the experiment with SK-MEL-28 melanoma, in the experiment on NCI-H226 lung, in the experiment on U251 CNS, with SF-539 CNS, in the experiment with SN12C renal and in the experiment on KM12 colon was more than 100 µM each time. In the experiment on HCC-2998 colon, this molecule had a TGI of more than 100 µM.
With `O=C1OC(C2Cc3ccc4c(c3C2=O)CCCC4)c2ccccc21` (stereo not drawn), the TGI was more than 100 µM in the experiment with MDA-MB-435; 82 µM with HS 578T breast; more than 100 µM with HCT-116 colon; more than 100 µM with HCT-15 colon; more than 100 µM with MALME-3M melanoma; more than 100 µM in the experiment on PC-3 prostate. Besides, the TGI with SK-MEL-28 melanoma was more than 100 µM; with NCI-H226 lung, 59.2 µM; in the experiment on U251 CNS it was more than 100 µM; in the experiment with SF-539 CNS it was 66.7 µM; with SN12C renal, more than 100 µM; in the experiment with KM12 colon, more than 100 µM. Also, the TGI in the experiment on HCC-2998 colon stood at 94.6 µM.
Take `COc1ccc(C(c2cc(OC)c(OC)c(OC)c2)N2C(=O)CCC2C(=O)O)cc1` (stereo not drawn): the TGI is 48.6 µM with MDA-MB-435; more than 100 µM in the experiment with HS 578T breast; more than 100 µM with HCT-116 colon; more than 100 µM with HCT-15 colon; more than 100 µM with MALME-3M melanoma; more than 100 µM in the experiment on PC-3 prostate. Moreover, the TGI was more than 100 µM with SK-MEL-28 melanoma; more than 100 µM in the experiment on NCI-H226 lung; more than 100 µM with U251 CNS; 52 µM in the experiment on SF-539 CNS; more than 100 µM in the experiment on SN12C renal; more than 100 µM in the experiment with KM12 colon. This molecule also showed a TGI in the experiment on HCC-2998 colon of more than 100 µM.
On to `Oc1ccccc1-c1n[nH]c(-c2ccccc2O)n1`, for which the TGI was more than 100 µM in the experiment with MDA-MB-435; more than 100 µM in the experiment on HS 578T breast; more than 100 µM in the experiment on HCT-116 colon; more than 33.6 µM with HCT-15 colon; more than 100 µM with MALME-3M melanoma; 4.72 µM with PC-3 prostate. For the same molecule, the TGI in the experiment with SK-MEL-28 melanoma, with NCI-H226 lung, with U251 CNS, in the experiment with SF-539 CNS, with SN12C renal and in the experiment on KM12 colon was more than 100 µM each time. The molecule also returned a TGI in the experiment on HCC-2998 colon of more than 96.7 µM.
Turning to `CN(C)c1cccc(/C=C(\C#N)c2ccccc2)c1`, the TGI in the experiment with MDA-MB-435 was 0.18 µM; in the experiment on HS 578T breast, 2.79 µM; with HCT-116 colon, 57.5 µM; in the experiment on HCT-15 colon, more than 58.4 µM; with MALME-3M melanoma it was more than 73.7 µM; with PC-3 prostate it was more than 100 µM. The TGI in the experiment on SK-MEL-28 melanoma was more than 100 µM; in the experiment with NCI-H226 lung it was 24.6 µM; in the experiment on U251 CNS it was 27.1 µM; with SF-539 CNS, 4.32 µM; in the experiment with SN12C renal, more than 100 µM; in the experiment with KM12 colon, 8.92 µM. Also, the TGI with HCC-2998 colon came to 7.28 µM.
On to `[O-]/[N+](=N/c1ncc(-c2ccccc2)cn1)c1ncc(-c2ccccc2)cn1`, for which the TGI in the experiment on MDA-MB-435, with HS 578T breast, in the experiment with HCT-116 colon, in the experiment with HCT-15 colon, in the experiment with MALME-3M melanoma and in the experiment with PC-3 prostate was more than 100 µM each time. For the same molecule, the TGI in the experiment with SK-MEL-28 melanoma, with NCI-H226 lung, in the experiment with U251 CNS, with SF-539 CNS, in the experiment with SN12C renal and in the experiment with KM12 colon was more than 100 µM in each case. This molecule also had a TGI with HCC-2998 colon of more than 100 µM.
